Measured values from patent US20250312416A1, “METHOD AND PHARMACEUTICAL COMPOSITION FOR CARTILAGE REGENERATION” (FAR EASTERN MEMORIAL HOSPITAL, priority 2024, published 2025).
“Also recorded” adds a separate entry of the source.

Tests used:
[1] = test system: clinical-grade ADSCs; assay: Real-time PCR of chondrogenic genes in ADSCs; format: cell-based, human
Method: Real-time PCR analysis was conducted on day 7 for CXCL12/CXCL14 peptides treated ADSCs, evaluating the expression of COMP, SOX9, COL2A1, ACAN, ITGB1, and SOSTDC1 genes. Cells were harvested, and RNA extraction was performed using a LightCycler® (Roche Applied Science). The fold change in gene expression on the y-axis was calculated relative to the same gene expression in untreated chondrocytes. Statistical analysis was conducted using one-way ANOVA. Significance levels are denoted as follows: * p<0.05, ** p<0.01, *** p<0.001, and **** p<0.0001 for comparisons between PBS treatments and the untreated group.
Real-time PCR analysis was performed on day 7 for ADSCs treated with CXCR4 agonists, assessing the expression of COMP, SOX9, COL2A1, ACAN, ITGB1, CXCL14, and SOSTIC1 genes. Cellular harvest, RNA extraction, and gene expression quantification were conducted using a LightCycler® (Roche Applied Science). The fold change in gene expression on the y-axis was calculated relative to the same gene expression in untreated chondrocytes. Statistical analysis was executed through one-way ANOVA. Significance levels are represented as follows: * p<0.05, ** p<0.01, *** p<0.001, and **** p<0.0001, indicating the significance of comparisons between PBS treatments and the untreated group.
(§1) Alcian blue staining was used to assess the chondrogenic differentiation of ADSC pellets. […] Treatment with CXCL14-PM1, CXCL14-PM2, CXCL14-PM3, and CXCR4-PM1 was sufficient to enhance the expression of chondrogenic genes in ADSCs. On day 7, real-time PCR was performed to analyze the expression of key chondrogenic markers, including SOX9, COL2A1, COMP, ACAN, ITGB1, CXCL14, and CXCR4, in ADSCs treated with these modified peptides. ADSCs were exposed to distinct peptide modifications derived from CXCL12, CXCL14, and CXCR4 at a concentration of 10 ng for a one-day treatment, after which the medium was replaced with fresh peptide-free medium. At the end of the treatment period, RNA was extracted to evaluate the expression levels of chondrogenesis-related cytokine genes. Gene expression quantification was performed using a LightCycler system (Roche Applied Science), and fold changes were calculated relative to untreated control ADSCs. […] FIG. 16(D) provides a summary of the results for alanine substitution with positively or negatively charged amino acids in CXCL12, CXCL14, and CXCR4 peptides.
ADSCs were treated with CXCL14-P, CXCL14-P1, or CXCL14-P2, respectively, at a concentration of 10 ng for 24 hours, after which the medium was replaced with fresh peptide-free medium. On day 7, total RNA was extracted, and real-time PCR analysis was performed to assess the expression levels of key chondrogenic markers, including ACAN, COL2A1, SOX9, and COMP. Gene expression levels were quantified using a LightCycler system (Roche Applied Science), with fold changes calculated relative to untreated control ADSCs. […] Immunofluorescence staining was performed to detect Collagen Type II, SOX9, COMP, and nuclei (Hoechst 33342) in 3D ADSC spheroids (middle panel). […]
Human IPFP-MSCs and ADSCs were expanded in Dulbecco's Modified Eagle's Medium (DMEM, Gibco, cat. no 2145484) with 10% FBS under a 37° C., 5% CO2 atmosphere. MSCs collected and cell extractions were determined gene expression levels of cytokines and chondrogenic markers using a LightCycler® (Roche Applied Science). The fold change in gene expression on the y-axis was calculated based on untreated cell gene expression.

[2] = test system: clinical-grade ADSCs; assay: Alcian blue staining of chondrogenic pellets (GAG), ADSCs; format: cell-based, human
Method: The chondrogenic differentiation of pellets containing clinical-grade ADSCs was assessed through Alcian blue staining.
The chondrogenic differentiation of pellets containing clinical-grade ADSCs was evaluated using Alcian blue staining.
as §1
To assess differentiation capacity, single-cell suspensions from cultured IPFP-MSCs and ADSCs were cultivated in chondrogenic medium. Alcian Blue staining was performed on day 7 to evaluate chondrogenic differentiation. The chondrogenic differentiation test was measured gene expressions of ACAN, COL2A1, SOX9, COMP, ITGB1, CXCL14 and SOSTDC1.

[3] = test system: UC-MSCs; assay: Real-time PCR of chondrogenic genes in UC-MSCs; format: cell-based; settings: day 7 of peptide treatment
Description: FIG. 13A provides flowchart illustrating the protocol for peptide treatment and sample collection. […] TGF-beta influenced the expression of chondrogenic genes, including ITGB1 and COMP. […] Treatment with CXCL14/CXCL12 peptides increased GAG content during chondrogenesis in the presence of TGF-beta.
To further validate the role of CXCL14-P and CXCL12-P in regulating chondrogenesis, we compared their effects on another MSC source, umbilical cord-derived mesenchymal stem cells (UC-MSCs). It is important to note that the chondrogenic induction medium contained TGF-β. During chondrogenesis, we observed that the chondrogenic patterns in UC-MSCs were lower than those in ADSCs (FIG. 12). Subsequently, we assessed the chondrogenic potential of UC-MSCs following stimulation with CXCL14-P and CXCL12-P (FIG. 13A). […] Although the expression of chondrogenic genes (FIG. 13B) and GAG content (FIG. 13C) in UC-MSCs was not as pronounced as in ADSCs, the findings confirm that CXCL14-P and CXCL12-P can robustly stimulate chondrogenesis across different MSC sources.

[4] = test system: ADSCs; assay: Cellular uptake of fluorescently labeled peptides by fluorescence microscopy; format: cell-based, human
Method: Cell-penetrating properties of CXCL14-P and CXCL12-P peptides in ADSCs were analyzed. ADSCs were incubated with 10 ng of FITC-conjugated peptides at 37° C. for one day, followed by refreshing the chondrogenic medium. Peptide internalization was evaluated through fluorescence microscopy on days 1, 3, and 7.
We further explored whether peptides derived from CXCL14 and CXCL12 have the capacity to induce chondrogenesis in MSCs from different sources. To assess their potential, ADSCs were utilized in the study to evaluate the chondrogenic capacity of CXCL14-P and CXCL12-P on day 7 (FIG. 10A). […] FIG. 11 illustrates the cell-penetrating properties of CXCL14-P and CXCL12-P peptides in ADSCs, analyzed at different time points. ADSCs were incubated with FITC-conjugated peptides for one day, after which the chondrogenic medium was refreshed. […] Collectively, these observations indicate that CXCL14-P and CXCL12-P have the ability to stimulate chondrogenesis and further amplify the effects of TGF-β during the chondrogenic process.

Question: Which results are given for ITTKSVSRYRGQEH [CXCL14-P]?
Answer: expression of chondrogenic genes (COMP, SOX9, COL2A1, ACAN, ITGB1, SOSTDC1) ([1]; day 7, peptides compared to CXCL12/CXCL14 proteins, listed as CXCL14 peptide): significantly upregulated; also recorded: greater ability; expression of chondrogenic genes (COMP, SOX9, COL2A1, ACAN, ITGB1) ([1]; day 7 of treatment with peptide): significantly upregulated; chondrogenic genes ([1]; in the absence of TGF-β): evident; expression of chondrogenic genes ITGB1 and COMP ([1]; in the presence of TGF-β, day 7): significantly enhanced; GAG content (Alcian blue) ([2]; in the absence of TGF-β): evident; GAG content (Alcian blue) ([2]; in the presence of TGF-beta): significantly increased; GAG content (Alcian blue) ([2]; peptides compared to CXCL14/CXCL12 proteins, listed as CXCL14 peptide): significantly higher; also recorded: greater ability; chondrogenic gene expression (COMP, SOX9, COL2A1, ACAN, ITGB1) [3]: significantly upregulated; cellular uptake / detectability of peptide ([4]; 10 ng FAM-labeled, 24 hours then peptide-free medium, monitored to day 7): detectable on day 1 but became undetectable by day 7; peptide internalization (cell penetration) ([4]; 10 ng FITC-conjugated peptide, 37° C. for one day, observed days 1, 3, 7): remain detectable up to day 7
